Test results as given in paper PMC10914731, “Homo-BacPROTAC-induced degradation of ClpC1 as a strategy against drug-resistant mycobacteria” (Nature Communications, 2024).
Where “and” joins values, the source holds several entries; their conditions need not be identical. Identical values can stand only once. Like-named read-outs stand apart in the source and are kept apart here. *1 amine or outer side, *2 acyl side, *3 side chain or, on linkers, in order; H or OH if unused. Where a SMILES comes first, the peptide text is derived from it. [ ]: non-standard residue; d: D form. ξ: configuration not given here. X3 = C#CCOc1ccc([C@@H](OC)[C@H](N[*:1])C(=O)[*:2])cc1; ξNMeTrp(1-Me) = CNC(Cc1cn(C)c2ccccc12)C(=O)O; X8 = CC(CO)C[C@@H](C(=O)[*:2])N(C)[*:1]; NMeL = CN[C@@H](CC(C)C)C(=O)O; ξV = CC(C)C(N)C(=O)O

Tests used:
Caco-2 monolayers = experiment: in vitro
From the text: (§1) Supplementary Table 1. Structure-Activity Relationships part 1 (SPR, Caco-2) […]
(§2) SPR. Mean values ± standard deviation. Footnotes indicate the number of measurements performed for the respective compound: a) n = […]
(§3) [5] Permeability across Caco-2 monolayers in P(A−B): apical to basolateral and P(B−A): basolateral to apical direction (values reported in 10-
(§4) 6 cm s-1); efflux ratio = P(B−A)/P(A−B); Int. perm: mean value of P(A−B) and P(B−A). […] Influence of Trp-Nα methylation on P(A-B) and efflux
(§5) ratio. Bold: positive influence.

[1] = molecular target: ClpC1-NTD substrate, M. tuberculosis ClpC1P1P2 (Mycobacterium tuberculosis, UniProt P9WPC9); experiment: biochemical; type: biochemical
Sequence of ClpC1-NTD substrate, M. tuberculosis ClpC1P1P2 (P9WPC5 whole entry): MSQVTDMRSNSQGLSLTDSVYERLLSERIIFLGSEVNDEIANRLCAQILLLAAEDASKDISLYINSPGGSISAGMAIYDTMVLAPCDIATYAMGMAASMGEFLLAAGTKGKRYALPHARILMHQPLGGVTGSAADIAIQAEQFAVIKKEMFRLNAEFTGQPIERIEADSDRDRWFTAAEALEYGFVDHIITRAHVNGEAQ
Sequence of ClpC1-NTD substrate, M. tuberculosis ClpC1P1P2 (P9WPC9 whole entry): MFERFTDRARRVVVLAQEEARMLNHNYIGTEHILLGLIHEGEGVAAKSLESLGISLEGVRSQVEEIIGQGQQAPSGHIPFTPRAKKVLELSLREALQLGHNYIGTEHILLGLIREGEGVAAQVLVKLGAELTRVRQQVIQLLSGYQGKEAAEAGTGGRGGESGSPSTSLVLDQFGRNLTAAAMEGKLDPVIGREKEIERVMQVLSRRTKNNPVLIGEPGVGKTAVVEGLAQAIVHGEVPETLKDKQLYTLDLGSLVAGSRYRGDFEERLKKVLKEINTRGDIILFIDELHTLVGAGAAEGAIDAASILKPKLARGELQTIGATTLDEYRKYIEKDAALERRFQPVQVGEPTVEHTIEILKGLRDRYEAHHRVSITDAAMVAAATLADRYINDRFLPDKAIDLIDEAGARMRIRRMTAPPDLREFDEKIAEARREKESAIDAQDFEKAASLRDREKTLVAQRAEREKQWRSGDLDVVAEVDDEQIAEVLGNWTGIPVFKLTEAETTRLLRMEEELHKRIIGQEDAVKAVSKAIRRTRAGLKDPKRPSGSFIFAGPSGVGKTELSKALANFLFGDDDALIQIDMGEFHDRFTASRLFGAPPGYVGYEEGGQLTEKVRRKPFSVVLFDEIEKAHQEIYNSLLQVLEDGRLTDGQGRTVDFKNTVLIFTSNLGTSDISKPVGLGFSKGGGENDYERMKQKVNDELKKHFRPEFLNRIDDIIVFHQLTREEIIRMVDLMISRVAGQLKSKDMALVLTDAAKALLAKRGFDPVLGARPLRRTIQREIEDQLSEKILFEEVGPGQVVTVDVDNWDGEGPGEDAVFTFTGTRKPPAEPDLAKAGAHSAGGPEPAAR
Sequence of ClpC1-NTD substrate, M. tuberculosis ClpC1P1P2 (P9WPC3 whole entry, further chain): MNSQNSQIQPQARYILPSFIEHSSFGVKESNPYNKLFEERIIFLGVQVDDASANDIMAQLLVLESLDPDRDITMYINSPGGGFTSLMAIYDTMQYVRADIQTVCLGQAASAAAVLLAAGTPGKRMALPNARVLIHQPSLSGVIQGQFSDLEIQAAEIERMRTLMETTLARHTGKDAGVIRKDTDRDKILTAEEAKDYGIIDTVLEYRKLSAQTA

[2] = molecular target: ClpC1 NTD protein (M. tuberculosis) (Mycobacterium tuberculosis, UniProt P9WPC9); experiment: biochemical; type: binding
Sequence of ClpC1 NTD protein (M. tuberculosis) (P9WPC9 1-156, looked up, natural form): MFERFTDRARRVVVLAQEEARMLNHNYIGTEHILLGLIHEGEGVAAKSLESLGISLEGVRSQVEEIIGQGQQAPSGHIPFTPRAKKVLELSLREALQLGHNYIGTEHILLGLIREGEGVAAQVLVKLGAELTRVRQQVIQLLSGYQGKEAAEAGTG

[3] = type: in vitro ADME, Rat
Protocol: (§6) Cryopreserved hepatocytes are incubated in an appropriate buffer system containing 50% species serum. Following an acclimation period (15–30 min) in an incubator (37 °C, 5−10% CO2, 85–95% humidity) the test compound is added to the hepatocyte suspension (pH 7.4, typical cell density of about 1 million cells/mL; final concentration of test compound is 1 µM, final DMSO concentration <0.05% v/v). The cells are incubated for up to 6 h and samples are taken at 6 different time points. Samples are then quenched with acetonitrile and pelleted by centrifugation. The remaining amount of parent compound in the supernatants is then analysed by HPLC-MS/MS. Clearance is calculated from compound half-lives using the well-stirred liver model and is converted to clearance stated as % of the liver blood flow (% Qh).

[4] = molecular target: His6-tagged ClpC1-NTD substrate, M. smegmatis ClpC1P1P2 (UniProt A0R574+P9WPC9); experiment: biochemical; type: biochemical
Sequence of His6-tagged ClpC1-NTD substrate, M. smegmatis ClpC1P1P2 (P9WPC9 1-156, looked up, natural form): as above
Sequence of His6-tagged ClpC1-NTD substrate, M. smegmatis ClpC1P1P2 (A0R574 whole entry): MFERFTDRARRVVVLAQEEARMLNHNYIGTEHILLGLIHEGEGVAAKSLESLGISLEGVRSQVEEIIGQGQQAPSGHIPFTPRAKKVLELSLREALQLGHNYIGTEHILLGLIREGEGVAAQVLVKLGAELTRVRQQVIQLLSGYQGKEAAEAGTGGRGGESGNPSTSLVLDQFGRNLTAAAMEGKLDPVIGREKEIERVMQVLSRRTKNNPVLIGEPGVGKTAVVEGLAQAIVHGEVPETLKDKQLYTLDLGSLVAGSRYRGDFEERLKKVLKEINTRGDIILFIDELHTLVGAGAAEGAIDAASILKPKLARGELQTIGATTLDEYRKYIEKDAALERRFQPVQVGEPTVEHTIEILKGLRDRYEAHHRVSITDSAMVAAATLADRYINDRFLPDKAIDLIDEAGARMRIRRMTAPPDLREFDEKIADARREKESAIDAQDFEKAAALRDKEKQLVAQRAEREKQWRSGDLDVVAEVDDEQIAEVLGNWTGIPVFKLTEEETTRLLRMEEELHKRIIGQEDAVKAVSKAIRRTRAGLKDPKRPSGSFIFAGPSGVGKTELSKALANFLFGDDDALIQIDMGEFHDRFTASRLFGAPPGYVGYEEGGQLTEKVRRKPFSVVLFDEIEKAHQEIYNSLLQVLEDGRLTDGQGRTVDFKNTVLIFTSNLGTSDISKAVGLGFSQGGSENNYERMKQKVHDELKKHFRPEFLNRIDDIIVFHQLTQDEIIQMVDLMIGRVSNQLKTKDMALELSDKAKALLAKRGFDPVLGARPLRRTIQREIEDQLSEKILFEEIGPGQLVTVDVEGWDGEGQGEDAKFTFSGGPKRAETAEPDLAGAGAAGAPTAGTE

[5] = type: in vitro ADME, Human; conditions: for Hepatocyte Human: clearance in hepatocytes
Protocol: as §6

[6] = Hepatocyte stability, mice; type: in vitro ADME; conditions: for Hepatocyte Mice: clearance in hepatocytes
Protocol: as §6

in vitro = conditions: human; for Papp A→B: apical to basolateral; for Papp B→A: basolateral to apical
From the text: as §1, §2, §3, §4, §5

[7] = read-out: DC50, single measurements
[8] = read-out: KD ClpC1-NTD Mean ± SD
[9] = mean value of P(A−B) and P(B−A)
[10] = Caco-2, Caco-2 permeability P (A-B)
[11] = Caco-2, Caco-2 permeability P (B-A)
[12] = SPR (Supplementary Table 1), read-out: KD ClpC1-NTD Mean ± SD
[13] = SPR, single independent measurements, read-out: KD ClpC1-NTD

SMILES | CACO permeability PEAB (Caco-2 monolayers; Caco-2) | CACO permeability PEBA (Caco-2 monolayers; Caco-2) | Caco-2 Int. Perm (Caco-2 monolayers; Caco-2) | 1-Dmax, Mean [1] | 1-Dmax, single measurements [1] | DC50 ([1]; read-out: DC50, Mean) | DC50 [1, 7] | koff ClpC1-NTD [2] | Kd ([2]; read-out: KD ClpC1-NTD) | Kd [2, 8] | Hepatocyte Stability Rat QH [3] | 1-Dmax, Mean [4] | Hepatocyte Mice [6] | Caco-2 Int. Perm (Caco-2 monolayers; [9]) | Papp A→B (in vitro; [10]) | Kd [2, 12] | Kd [2, 13] | Hepatocyte Stability Rat QH ([3]; Rat) | Hepatocyte Rat ([3]; clearance in hepatocytes) | Hepatocyte Human [5] | further results
CO[C@H](c1ccccc1)[C@@H]1NC(=O)[C@H](C)NC(=O)[C@H](C[C@@H](C)CO)N(C)C(=O)[C@H](Cc2cn(CCCCn3cc(C[C@H]4C(=O)N(C)[C@@H](C[C@@H](C)CO)C(=O)N[C@@H](C)C(=O)N[C@@H]([C@H](OC)c5ccccc5)C(=O)N[C@@H](C(C)C)C(=O)N(C)[C@@H](CC(C)C)C(=O)N[C@@H](C(C)C)C(=O)N4C)c4ccccc43)c3ccccc23)N(C)C(=O)[C@H](C(C)C)NC(=O)[C@H](CC(C)C)N(C)C(=O)[C@H](C(C)C)NC1=O [SI-61] | <0.000 cm/sec | <0.000 cm/sec | 2.75 10-6 cm s-1 | 42% | 36.8% and 46.3% | 7200 nM | 7300 nM and 7000 nM | 8E-4 5E-4 1/s | 0.581 nM and 0.49 nM | 0.54 ± 0.06 nM | 6.192% | 42% | 15 %Qh |  |  |  |  |  |  |  | Caco-2 permeability P (A-B) (Caco-2 monolayers; Caco-2): < 4.2 10-6 cm s-1; Caco-2 permeability P (B-A) (Caco-2 monolayers; Caco-2): < 1.3 10-6 cm s-1; Hepatocyte Rat [3]: 6 %Qh; 1-Dmax, single measurements [4]: 37.4% and 43.6% and 42.4% and 44.3%; DC50 ([4]; read-out: DC50, Mean): 5300 nM; DC50 [4, 7]: 5.3 µM (2×) and 4.6 µM and 5.8 µM; Hepatocyte Stability Human QH [5]: 12.386%; Hepatocyte Stability Mouse QH [6]: 15.001%
CO[C@H](c1ccccc1)[C@@H]1NC(=O)[C@H](C)NC(=O)[C@H](C[C@@H](C)CO)N(C)C(=O)[C@H](Cc2cn(Cc3cn(CCCCCn4cc(Cn5cc(C[C@H]6C(=O)N(C)[C@@H](C[C@@H](C)CO)C(=O)N[C@@H](C)C(=O)N[C@@H]([C@H](OC)c7ccccc7)C(=O)N[C@@H](C(C)C)C(=O)N(C)[C@@H](CC(C)C)C(=O)N[C@@H](C(C)C)C(=O)N6C)c6ccccc65)nn4)nn3)c3ccccc23)N(C)C(=O)[C@H](C(C)C)NC(=O)[C@H](CC(C)C)N(C)C(=O)[C@H](C(C)C)NC1=O [SI-57] |  |  |  |  |  |  |  |  |  |  |  |  | 15 %Qh | 1.5 10-6 cm s-1 | < 2.2 ×10⁻⁶ cm/s | 1.6 ± 0.8 nM | 2.13 nM and 1 nM | 8.056% | 8 %Qh | 12 %Qh | Papp B→A (in vitro; [11]): < 0.7 ×10⁻⁶ cm/s; 1-Dmax, single measurements ([1]; Mtb, Measurement 1-4): 68.4% and 44.2% and 52.6%; DC50 ([1]; Mtb, Measurement 1-4, read-out: DC50, single measurements): 20900 nM and 18700 nM and 31500 nM; 1-Dmax (percent substrate remaining at maximal degradation) ([1]; Mtb, mean of the measurements, read-out: 1-Dmax, Mean): 55%; DC50 ([1]; Mtb, mean of the measurements, read-out: DC50, Mean): 23700 nM; koff ClpC1-NTD ([2]; SPR, single independent measurements): 0.001 s⁻¹; koff ([2]; SPR, single independent measurements, read-out: koff ClpC1-NTD): 0.002 s⁻¹; 1-Dmax, single measurements ([4]; Msm, Measurement 1-6): 73.5% and 61.5% and 74.0%; 1-Dmax (percent substrate remaining at maximal degradation) ([4]; Msm, Measurement 1-6, read-out: 1-Dmax, single measurements): 60.5%; 1-Dmax (percent substrate remaining at maximal degradation) ([4]; Msm, mean of the measurements, read-out: 1-Dmax, Mean): 67%; DC50 ([4]; Msm, mean of the measurements, read-out: DC50, Mean): 23000 nM
C#CCOc1ccc([C@@H](OC)[C@@H]2NC(=O)[C@@H](C)NC(=O)[C@H](CC(C)CO)N(C)C(=O)C(Cc3cn(C)c4ccccc34)N(C)C(=O)C(C(C)C)NC(=O)[C@H](CC(C)C)N(C)C(=O)[C@@H](C(C)C)NC2=O)cc1 (some centres unmarked) [SI-64] (cyclo([NMeL][ξV][ξNMeTrp(1-Me)][X8][dA][X3][dV])) |  |  |  |  |  |  |  |  |  |  |  |  | 34 %Qh | 29.0 10-6 cm s-1 |  | 11 ± 1 nM | 12.1 nM and 10.5 nM | 49.748% | 50 %Qh | 22 %Qh | CACO permeability PEAB (Caco-2 monolayers; apical to basolateral): 0.000014999999999999999 cm/s; CACO permeability PEBA (Caco-2 monolayers; basolateral to apical): 0.000042999999999999995 cm/s; Permeability Correlation P (A-B) (Caco-2 monolayers; influence of Trp-Nα methylation on P(A-B), matched pair, listed under the methylated partner): > 75; Permeability Correlation Ratio (Caco-2 monolayers; influence of Trp-Nα methylation on efflux ratio, matched pair, listed under the methylated partner): > 31; efflux ratio (in vitro; Caco-2): 2.9; Papp A→B (in vitro; Caco-2, CACO permeability PEAB): 17 ×10⁻⁶ cm/s; Papp B→A (in vitro; Caco-2, CACO permeability PEBA): 44 ×10⁻⁶ cm/s; Hepatocyte Stability Human QH ([5]; Human): 21.688%; Hepatocyte Stability Mouse QH ([6]; Mouse): 34.335%
COC(c1ccc(OCc2cn(CCOCCOCCOCCOCCn3cc(COc4ccc(C(OC)C5NC(=O)C(C)NC(=O)C(CC(C)CO)N(C)C(=O)C(Cc6cn(C)c7ccccc67)N(C)C(=O)C(C(C)C)NC(=O)C(CC(C)C)N(C)C(=O)C(C(C)C)NC5=O)cc4)nn3)nn2)cc1)C1NC(=O)C(C)NC(=O)C(CC(C)CO)N(C)C(=O)C(Cc2cn(C)c3ccccc23)N(C)C(=O)C(C(C)C)NC(=O)C(CC(C)C)N(C)C(=O)C(C(C)C)NC1=O (centres unmarked) [SI-65] | <0.0000086 cm/sec | <0.0000051 cm/sec | 6.9 10-6 cm s-1 | 84% | 84.7% and 83.2% | 8000 nM | 7000 nM and 9000 nM | 5E-3 1E-2 1/s | 2.29 nM and 1.35 nM | 1.8 ± 0.7 nM | 16.284% | 92% |  |  |  |  |  |  |  |  | 1-Dmax, single measurements [4]: 86.9% and 92.9% and 97.0%; DC50 ([4]; read-out: DC50, Mean): 5200 nM; DC50 [4, 7]: 6100 nM and 5000 nM and 4500 nM; Hepatocyte Stability Human QH [5]: 12.386%; Hepatocyte Stability Mouse QH [6]: 15.001%
CCCCCn1cc(C[C@@H]2NC(=O)[C@H](CC(C)C)N(C)C(=O)[C@H](C(C)C)NC(=O)[C@H]([C@H](OC)c3ccccc3)NC(=O)[C@H](C)NC(=O)[C@H](C[C@@H](C)CO)N(C)C(=O)[C@H](Cc3cn(C)c4ccccc34)NC2=O)nn1 [Compound 24] |  |  |  |  |  |  |  |  |  |  |  |  | 35 %Qh | 5.6 10-6 cm s-1 | < 0.3 ×10⁻⁶ cm/s |  |  | 33.303% | 33 %Qh |  | CACO permeability PEBA (Caco-2 monolayers; basolateral to apical): 0.000011 cm/s; Papp A→B (in vitro; Caco-2, CACO permeability PEAB): < 0.27 ×10⁻⁶ cm/s; Papp B→A (in vitro; Caco-2, CACO permeability PEBA): 13 ×10⁻⁶ cm/s; Kd ([2]; SPR, individual measurements (source data), read-out: KD ClpC1-NTD): 4.68 nM and 4.44 nM; Kd ([2]; SPR, read-out: ClpC1-NTD KD Mean ± SD): 4.6 ± 0.2 nM; Hepatocyte Stability Human QH ([5]; Human): 17.172%; Hepatocyte Stability Mouse QH ([6]; Mouse): 35.166%
CO[C@H](c1ccc(OCc2cn(CCCCCn3cc(COc4ccc([C@@H](OC)[C@@H]5NC(=O)[C@H](C)NC(=O)[C@H](C[C@@H](C)CO)N(C)C(=O)[C@H](Cc6cn(C)c7ccccc67)N(C)C(=O)[C@H](C(C)C)NC(=O)[C@H](CC(C)C)N(C)C(=O)[C@H](C(C)C)NC5=O)cc4)nn3)nn2)cc1)[C@@H]1NC(=O)[C@H](C)NC(=O)[C@H](C[C@@H](C)CO)N(C)C(=O)[C@H](Cc2cn(C)c3ccccc23)N(C)C(=O)[C@H](C(C)C)NC(=O)[C@H](CC(C)C)N(C)C(=O)[C@H](C(C)C)NC1=O [SI-66] |  |  |  |  |  |  |  |  |  |  |  |  | 15 %Qh | 3.7 10-6 cm s-1 | < 4.8 ×10⁻⁶ cm/s | 7 ± 2 nM | 8.57 nM and 6.41 nM | 9.964% | 10 %Qh | 12 %Qh | Papp B→A (in vitro; [11]): < 2.5 ×10⁻⁶ cm/s; koff ([2]; SPR dissociation rate constant, read-out: koff ClpC1-NTD Mean ± SD): 0.01 s⁻¹
